From patent US20140031432A1, “TREATMENT OF MITOCHONDRIAL DISEASES WITH VITAMIN K” (Ampere Life Sciences, Inc., priority 2010, published 2014)

Columns and labels:
Format in all cases: cell-based
[1] = test system: human dermal fibroblasts from Huntington's patients; assay: Rescue of fibroblasts from Huntington's patients from oxidative stress (Example B); conditions: Fibroblast, Huntington's cells (Coriell GM 04281), screen as in Example A (BSO stress), read-out: protection against Huntington's, EC50
Method: [The source words this procedure for another cell line and reports this cell line under the same test.] (§1) Test samples and solvent controls were tested for their ability to rescue FRDA fibroblasts stressed by addition of L-buthionine-(S,R)-sulfoximine (BSO), as described in Jauslin et al., Hum. Mol. Genet. 11(24):3055 (2002), Jauslin et al., FASEB J. 17:1972-4 (2003), and International Patent Application WO 2004/003565. […] This specific BSO-mediated cell death can be prevented by administration of antioxidants or molecules involved in the antioxidant pathway, such as alpha-tocopherol, selenium, or small molecule glutathione peroxidase mimetics. However, antioxidants differ in their potency, i.e. the concentration at which they are able to rescue BSO-stressed FRDA fibroblasts.
(§2) MEM (a medium enriched in amino acids and vitamins, catalog no. 1-31F24-I) and Medium 199 (M199, catalog no. 1-21F22-I) with Earle's Balanced Salts, without phenol red, were purchased from Bioconcept. Fetal Calf Serum was obtained from PAA Laboratories. Basic fibroblast growth factor and epidermal growth factor were purchased from PeproTech. Penicillin-streptomycin-glutamine mix, L-buthionine (S,R)-sulfoximine, and insulin from bovine pancreas were purchased from Sigma. Calcein AM was purchased from Molecular Probes. Cell culture medium was made by combining 125 ml M199 EBS, 50 ml Fetal Calf Serum, 100 U/ml penicillin, 100 μg/ml streptomycin, 2 mM glutamine, 10 μg/ml insulin, 10 ng/ml EGF, and 10 ng/ml bFGF; MEM EBS was added to make the volume up to 500 ml. A 10 mM BSO solution was prepared by dissolving 444 mg BSO in 200 ml of medium with subsequent filter-sterilization. During the course of the experiments, this solution was stored at +4° C. The cells were obtained from the Coriell Cell Repositories (Camden, N.J.; repository number GM04078) and grown in 10 cm tissue culture plates. Every third day, they were split at a 1:3 ratio. […]
(§3) 100 μl of PBS containing 1.2 μM Calcein AM were then added to each well. […] After that time the PBS was discarded, the plate gently tapped on a paper towel and fluorescence (excitation/emission wavelengths of 485 nm and 525 nm, respectively) was read on a Gemini fluorescence reader. […]

[2] = test system: human dermal fibroblasts from LHON patients; assay: Rescue of fibroblasts from LHON patients from oxidative stress (Example C); conditions: Fibroblast, LHON cells (Coriell GM03858), screen as in Example A (BSO stress), read-out: protection against LHON, EC50
Method: [The source words this procedure for another cell line and reports this cell line under the same test.] as §1
(§4) MEM (a medium enriched in amino acids and vitamins, catalog no. 1-31F24-I) and Medium 199 (M199, catalog no. 1-21F22-I) with Earle's Balanced Salts, without phenol red, were purchased from Bioconcept. Fetal Calf Serum was obtained from PAA Laboratories. Basic fibroblast growth factor and epidermal growth factor were purchased from PeproTech. […]
as §3

[3] = test system: human dermal fibroblasts from Parkinson's disease patients; assay: Rescue of fibroblasts from Parkinson's disease patients from oxidative stress (Example D); conditions: Fibroblast, Parkinson's disease cells (Coriell AG20439), screen as in Example A (BSO stress), read-out: protection against PD, EC50
Method: [The source words this procedure for another cell line and reports this cell line under the same test.] as §1, §4, §3

[4] = test system: Human dermal fibroblasts from Friedreich's ataxia patients; assay: Rescue of BSO-stressed FRDA fibroblasts (Example A); conditions: FRDA fibroblasts (Coriell GM04078), 1 mM BSO, 48 h, Calcein AM viability, read-out: protection against FRDA, EC50
Method: as §1, §2, §3

Which results are given for `CC(C)=CCCC(C)=CCC1=C(C)C(=O)c2ccccc2C1=O` [2-(3,7-dimethylocta-2,6-dien-1-yl)-3-methylnaphthalene-1,4-dione]?
EC50 [1]: < 0.5 µM; EC50 [2]: < 0.3 µM; EC50 [3]: < 0.5 µM; EC50 [4]: < 1 µM

How did the EC50 [1] turn out when `CC(C)=CCC/C(C)=C/CC/C(C)=C/CC/C(C)=C/CC1=C(C)C(=O)c2ccccc2C1=O` [2-methyl-3-[3,7,11,15-tetramethylhexadeca-2,6,10,14-tetraen-1-yl]naphthoquinone] was run?
The EC50 was under 0.5 µM.

And the EC50 [4]?
The EC50 was under 1 µM.

Which results are given for `CC1=CC(=O)c2ccccc2C1=O` [2-methylnaphthalene-1,4-dione]?
EC50 [1]: < 0.5 µM; EC50 [2]: < 0.3 µM; EC50 [3]: < 0.5 µM; EC50 [4]: < 1 µM
